In patent publication US7235252B2, “Method of preparing organic peroxyacids” (priority 2002, dated 2007):

Key:
[1] = Preliminary assessment of acetyl donating compounds; format: physicochemical
Description: Search work was initially directed towards finding out the best N-acyl and/or O-acyl activator of all those available and disclosed in the prior art referred to above. The features sought for in this initial search were: • a rapidly acting acylating agent (i.e. provided with an electrophilic carbonyl carbon) suitable for causing a perhydrolysis reaction due to electron-withdrawing effect on the carbonyl carbon and for providing a sufficiently high concentration of its respective peracid within short times (20–30 minutes) for the specified objects; • a good conservation under standard storage conditions (at temperatures ranging from 20° and 40° C.). • an ability to yield after activation an activated solution in which the organic peroxyacid concentration is as stable as possible. […]

[2] = Peracetic acid formation rate and stability with N-acyl donors in parent solution (double titration); format: physicochemical; conditions: equimolar N-acyl donor dispersed in parent solution
Description: The other conditions (temperature, humidity, generator composition) being the same, equimolar amounts of the three N-acyl donors were dispersed in the parent solution to determine the formation rate of peracetic acid in the solution and the stability with time of such a concentration. The method adopted for quantitative determination of organic peroxyacid in the presence of a large excess of hydrogen peroxide (in this and in the following tests) was a sequential double-titration, the first of which is a permanganometric test designed to titre and eliminate any hydrogen peroxide in excess, and this was immediately followed by an iodometric titration to determine the concentration of the remaining organic peroxide. The results are shown below, both as activation rate (see FIG. 1), and stability of the peracetic acid concentration (see FIG. 2) are concerned.

[3] = tested on: bacterial spores (sporicidal activity); assay: Minimum effective concentration (CME) by sporicidal activity; format: cell-based; conditions: minimum peracetic acid concentration with sporicidal activity over contact time of 15 minutes
Description: In the search study carried out with an endoscope washing machine, the solution was used by operating 10 full daily cycles of high-level disinfection or, better, cold-chemical sterilization for a total of 120 cycles. The contact time set for the sterilization step was 30 minutes. As it will be noted, immediately after activation, the concentration increases at a fast-rate, overcomes the minimum effective concentration level (Minimum Effective Concentration Level ═CME) equal to 0.05% w/v just after 15–20 minutes and reaches a maximum value equal to 0.35% w/v after 24 hours. During the following days, concentration decreases slowly down to a minimum effective level below which the effectiveness set forth below is not provided any longer. This threshold level (CME) was fixed and defined by means of the minimum % concentration of peracetic acid at which a sporicidal activity is still detected over a contact time of 15 minutes.

Structure (SMILES)	Stability under standard storage conditions [1]	Stability of peracetic acid concentration with time (FIG. 2) [2]	Minimum Effective Concentration Level (CME) [3] [% w/v]
CC(=O)ON1C(=O)CCC1=O [N-acetoxysuccinimide]	poor stability	poor stability with time	
CC(=O)N1CCCCCC1=O [N-acetylcaprolactam]		good stability	
CC(=O)N1C(=O)CCC1=O [N-acetylsuccinimide]	poor stability	behavior similar to that of N-OSU	
CC(=O)OO [peracetic acid]			0.05
